The nature of data set [1]: Rat PK at equimolar dose to Ezogabine in 0.5% methylcellulose. Conditions: for AUClast/D, analyte = dosed prodrug: male, rat, in vivo, 20 mg/kg; for Exposure of ezogabine compared with ezogabine itself (dose normalized AUC): rats, equimolar dose to Ezogabine (20 mg/kg). The procedure: (§1) Blood samples were collected at the same time points over 24 hours to generate a concentration time profile. Two male rats were dosed per group. Plasma samples were analyzed by LC/MS/MS and the resulting concentration time profiles and PK parameters are provided.
as §1, §1

Data set [2] is described as follows: Acid and organic solution stability, HPLC-UV 250 nm. The settings on record: for Degradation / conversion to ezogabine in solution: up to 3 weeks, acidic solutions and organic solvents; for Ezogabine Area: room temp., normal light; for Colour of solution: by Day 9. The procedure: An HPLC-UV Vis method was developed using 0.1% Formic acid in water as mobile phase A and 0.1% Formic acid in acetonitrile as mobile Phase B. A gradient method was developed ramping from 10% A to 90% B over 8 minutes and then returning to 10% A at 8.5 minutes on a 4.6×50 mm Zorbax C-18 column. Injections of 10 uL of stability solutions were injected for analyte detection.
[…] Aliquots were collected at serial time points and then diluted to a nominal concentration of 100 ug/mL for injection to the HPLC and 250 nm monitored by the diode array detector. Data at approximately 10 days is presented.
Aliquots were collected at serial time points and then diluted to a nominal concentration of 100 ug/mL for injection to the HPLC and 250 nm monitored by the diode array detector.
(§2) It was also evaluated at 2 N HCl at 37° C. Aliquots were collected at serial time points and then diluted to a nominal concentration of 100 ug/mL for injection to the HPLC and 250 nm monitored by the diode array detector.
as §2, §2, §2

Data set [3] is described as follows: Pharmacokinetics of ezogabine prodrugs in rat (IV, IM, PO). The settings on record: male Sprague Dawley rats, PO 20 mg/kg. Here is the method:
(§3) Blood was diluted by 10% with these stabilizers.
(§4) Extraction of the molecules was conducted by taking a 50 uL aliquot of plasma and adding 200 uL of acetonitrile containing 200 ng/mL tolbutamide as the internal standard. Samples were precipitated in a 96 well plate, centrifuges and an aliquot transferred to a new plate, dried down under heat and nitrogen and then reconstituted in the initial mobile phase conditions of the LC-MS/MS method. […] A standard curve was prepared from 5000 ng/mL to 1 ng/mL for each analyte. Concentration data from the bioanalytical run was analyzed by Phoenix Winnonlin version 8 for noncompartmental PK analysis, plotting of concentration time curves and tabulation of PK parameters.
150 uL of blood were collected at predesignated time points. At completion of the study animals were asphyxiated by carbon dioxide gas and exsanguinated for euthanasia.

For data set [4] the following is noted: in solvent, exposed to light; known; cited from earlier work.
Data set [5] in a line: Pharmacokinetics of ezogabine prodrugs in mouse (SC, PO). The settings on record: male mice, PO 20 mg/kg, plasma. Here is the method: as §3
as §4, with “noncompartmental sparse sampling” for “noncompartmental”
Animals were asphyxiated by carbon dioxide gas, blood was collected by cardiac stick and they were euthanized by cervical dislocation.

For data set [6] the following is noted: human, in vivo; cited from earlier work.
In data set [7] the test system is MES induced seizures. Description: Maximal electroshock (MES) test in CF-1 mice. Conditions: IP 1.5, 3, 6, 12 and 24 mg/kg. The class given is in vivo, mouse. Here is the method: All treatments were administered 30 minutes prior to MES, except for Phenytoin which was administered 1 h prior.
(§5) Each male CF-1 mouse provided one data point in the MES assay and one data point in the concentration analysis. There were 8 mice per time point.
(In general: The maximal electroshock test induces tonic seizures with an electrical stimulus.)

A short description of data set [8]: Drug concentration analysis after MES in CF-1 mice. Conditions: for Plasma concentration of Compound 1 relative to administration of Compound 1 alone: CF-1, mouse, in vivo, ip.
Description: as §5

Data set [9] has as its system CCI model of neuropathic pain. Description: CCI model of neuropathic pain (pin prick, von Frey). Format: in vivo, rat. Conditions: male Sprague Dawley rats. Here is the method: Compound 3 was tested for reversal of mechanical hypersensitivity to the pin prick test for hindlimb paw withdraw and the von Frey hairs for gram force mechanical allodynia in the CCI model of neuropathic pain. Male Sprague Dawley rats (n=8/group) were tested for baseline sensitivity on Day 1 (ipsilateral and contralateral paws) and administered XYG-203 orally; 40 mg/kg on Day 1, 20 mg/kg Day 3, 10 mg/kg Day 5, 5 mg/kg Day 7, 1 mg/kg Day 10 and baseline on Day 12. Mechanical hypersensitivity was tested 1 h after pretreatment. Data (mean±SD) were analyzed with a repeated measures ANOVA with Dunnet's adjustment for multiple comparisons.

Data set [10] in a line: Benchtop solution stability exposed to light, HPLC-UV 230 nm. The class given is physicochemical. Here is the method:
Compounds in solvent were left on the benchtop exposed to light for up to 7 days since it is known that Compound 1 will degrade with light within 3-7 days.
Stability was assessed by taking an aliquot from the solubility vials at each test day. A single replicate was injected for each test condition.
Samples were injected onto an HPLC system with an aqueous mobile phase and acetonitrile organic phase and compounds were separated on a C8 50×2 mm column. Wavelength 230 nm was monitored for absorption and integrated for peak area while the mass spectrometer was used to confirm mass. Samples were tested on Day 1 and on subsequent days through Day 7.

For data set [11], the system named is 5% formalin intraplantar injection. Description: Formalin inflammatory model (hind paw flicks/licks). The class given is in vivo, mouse. Conditions: 100 mg/kg in water SC 30 minutes before 5% formalin; both phases (0-10 min, 15-40 min). The procedure: Compound 4 was assessed in the rat formalin inflammatory model. The number of flicks/licks of a male CD-1 mouse in the acute phase 0-10 minute and the inflammatory phase from 15-40 min after intraplantar administration of 50 μL of 5% formalin was recorded. […] Data is presented over the duration of the observation periods in 2 minute bins.

The conditions of data set [12]: rat, 6 h, 1000 ng/mL. Here is the method:
Plasma was collected by the biomaterial vendor and kept frozen at −20° C.
The samples were analyzed by HPLC separation and mass spectrometry detection for prodrug amount, relative to a baseline time 0 control sample. Triplicate samples were generated at each time point and the peak area response was averaged and converted to a percent of baseline control.

For data set [13], the system named is MES Induced Seizures. Description: Maximal electroshock (MES) test in SD rats. Format: in vivo, rat. Conditions: IM 75 mg/kg.
Description: All treatments were at 0.083, 0.25, 0.5, 1, 2, 4, and 8 hours prior to the administration of MES test, where 6 seconds where 6 seconds without a seizure was considered protected.

The structures appear in SMILES notation.

`CCOC(=O)Nc1ccc(NCc2ccc(F)cc2)cc1NC(=O)[C@H](N)CO` [Compound 6]: in data set [1], the “AUClast/D, analyte = dosed prodrug” value worked out at 199 ng·h/mL/mg/kg and the “Exposure of ezogabine compared with ezogabine itself (dose normalized AUC)” value is on record as “similar”. Besides, the “Solution remained clear and colorless through” value in data set [2] (5 mg/mL, all test solutions) was at least 18 days. In addition, in [2] (5 mg/mL), the “Degradation / conversion to ezogabine in solution” value (shortened to “Degradation / conversion”) is “very little degradation to ezogabine”. Besides, in data set [2] (1N HCl, 437 h), the “Ezogabine Area” value was 58 mAU.
Consider `CCOC(=O)Nc1ccc(NCc2ccc(F)cc2)cc1N` [Compound 1, Ezogabine], for which, in data set [3], the “Cmax/D, analyte Cmpd 1” value is listed as 44.8 ng/mL/mg/kg. In addition, the “AUClast/D, analyte Cmpd 1” value in [3] (AUClast […] h) was determined as 280 ng·h/mL/mg/kg. The “Day by which solution was turning light purple (indicating degradation)” value in data set [2] (5 mg/mL, acid solutions, room temperature) was “up to 2 Day”. Also, the “Day at which solution began turning purple” value in data set [2] (5 mg/mL, organic solvent solutions, room temperature) is at least 7 days. Moreover, the “Time within which compound degrades with light” value in data set [4] was 3 to 7 days. Besides, in data set [5], the “Cmax/D, analyte Cmpd 1” value came to 148 ng/mL/mg/kg. Besides, the “AUClast/D, analyte Cmpd 1” value in [5] (AUClast 6 h) was 190 ng·h/mL/mg/kg. For the same molecule, in data set [6], the “Adverse reaction rate: abnormal coordination” value is 7%, the “Adverse reaction rate: aphasia” value is 4%, the “Adverse reaction rate: asthenia” value was 5% and the “Adverse reaction rate: balance disorder” value is on record as 4%. Besides, in data set [6], the “Adverse reaction rate: blurred vision” value is recorded as 5%, the “Adverse reaction rate: confusional state” value is on record as 9%, the “Adverse reaction rate: diplopia” value is on record as 7% and the “Adverse reaction rate: disturbance in attention” value is listed as 6%. For the same molecule, in [6], the “Adverse reaction rate: dizziness” value is on record as 23%, the “Adverse reaction rate: dysarthria” value is 4%, the “Adverse reaction rate: fatigue” value is 15% and the “Adverse reaction rate: gait disturbance” value is recorded as 4%. Besides, in data set [6], the “Adverse reaction rate: memory impairment” value is 6%, the “Adverse reaction rate: somnolence” value is on record as 22%, the “Adverse reaction rate: tremor” value was 8% and the “Adverse reaction rate: vertigo” value is 8%.
On to `CCOC(=O)Nc1ccc(NCc2ccc(F)cc2)cc1NC(=O)C[C@@H](CN)CC(C)C` [Compound 28], for which the “Complete protection against MES induced seizures” value in data set [7] was “None of the doses showed complete protection”. In [1], the “AUClast/D, analyte = dosed prodrug” value amounted to 83.0 ng·h/mL/mg/kg. In data set [1], the “Exposure of ezogabine compared with ezogabine itself (dose normalized AUC)” value is “lower exposure”. Besides, in data set [8] (CF-1 mice, IP, 30 minutes), the “Concentration of prodrug relative to ezogabine” value was “present at higher concentrations than ezogabine”. The “Solution remained clear and colorless through” value in data set [2] (5 mg/mL, acidic solutions) was at least 18 days; in data set [2] (5 mg/mL, acidic solutions and acetonitrile), at least 11 days. Further, the “Degradation / conversion” value in data set [2] (5 mg/mL) was “degradation to ezogabine with increasing strength of the acidic solution”. The “Ezogabine Area” value was found to be 0 mAU in [2] (0.1N HCl, 440 h) and 0 mAU in data set [2] (Methanol, 440 h). Further, in data set [2] (440 h, 5 mg/mL), the “% Remaining” value stood at 92.0%.
As for `CCOC(=O)Nc1ccc(NCc2ccc(F)cc2)cc1NC(=O)OC(C)OC(=O)C(C)C` (stereo not shown) [Compound 3], the “Mechanical hypersensitivity versus baseline” value in [9] (oral 5 mg/kg) is reported as 95% confidence intervals did not cross the baseline mean. In data set [9] (oral 40 mg/kg, 1 h after pretreatment), the “Gram force to paw lift (von Frey)” value is “increased the gram force to paw lift significantly”. In addition, the “Reduction of latency of neuropathic ipsilateral paw withdrawal (pin prick)” value in data set [9] (oral 40 mg/kg, 1 h after pretreatment, p=0.0003) worked out at 9.2 s. Further, the “AUClast/D, analyte = dosed prodrug” value in data set [1] came to 0.0136 ng·h/mL/mg/kg. Further, the Stability in solvent result in data set [10] (0.1 N HCl, over 4 days) is on record as “appears to be stable”; in data set [10] (ethanol and methanol), “stable through 3 days”. For the same molecule, the “Plasma concentration of Compound 1 relative to administration of Compound 1 alone” value in [8] is given as 5.5 fold. The Colour of solution result in [2] (5 mg/mL, 0.1 N HCl) is “turned a light tan”; in [2] (5 mg/mL, 1 N HCl) it was “turned a golden yellow”. In addition, the “Solution clear and colorless through” value in data set [2] (5 mg/mL, organic solvents) was at least 18 days. Moreover, the “Degradation / conversion” value in [2] (5 mg/mL) is on record as “converts to ezogabine under acidic conditions but does not in organic solvent”. In addition, the “Ezogabine Area” value in [2] (0.1N HCl, 433 h) came to 400 mAU; in data set [2] (Acetonitrile, 435 h), 51 mAU; in data set [2] (Ethanol, 390 h) it was 43 mAU; in [2] (Methanol, 435 h), 41 mAU.
For the molecule `CCOC(=O)Nc1ccc(NCc2ccc(F)cc2)cc1NC(=O)[C@@H](N)CCCCN` [Compound 4], the “Reduction in behavioral response (flicks/licks) compared to vehicle” value in [11] worked out at 50%. In data set [1], the “AUClast/D, analyte = dosed prodrug” value came out at 6.26 ng·h/mL/mg/kg. The “Exposure of ezogabine compared with ezogabine itself (dose normalized AUC)” value in [1] is reported as “similar”. In data set [12], the Stability in plasma entry is recorded as “stable through 6 hours”. Moreover, the “Plasma concentration of Compound 1 relative to administration of Compound 1 alone” value in [8] amounted to 9 fold. In addition, the figures for the “Protection from MES seizures” value in data set [13] (2 through 8 hours post dose) and in data set [13] (1 h post dose) were “fully protected” and “almost fully protected”, respectively. The “Solution remained clear and colorless through” value in [2] (5 mg/mL, all test solutions) was at least 18 days. The “Degradation / conversion” value in [2] (5 mg/mL) is recorded as “very little degradation to ezogabine”. Further, the “Ezogabine Area” value was 0 mAU in [2] (0.1N HCl, 269 h); 0 mAU in data set [2] (1N HCl, 269 h); 38 mAU in data set [2] (2N HCl, 269 h); 0 mAU in data set [2] (Methanol, 437 h); 0 mAU in data set [2] (PBS, 435 h).

The record behind these values is US20240300894A1, “PRODRUGS OF KV7 CHANNEL OPENERS” (Xyzagen, Inc., priority 2021, published 2024).
